Source: patent publication US20050143453A1, “Selective preventing and therapeutic agents for progressive lesion after organic damage” (priority 2000, published 2005)
Read-outs that look alike come from different tables or passages of the source.

Legend:
[1] = system: induction of effector macrophage by contact of human PBMC with mitomycin-treated human PBMC (allo-MLC); assay: SPFC production by allo-MLC stimulation (Test Example 2); type: cell-based; details: for functional group (selective suppression of SPFC production by allo-MLC or LPS stimulation): summary of Table 1
[2] = system: induction of effector macrophage by contact of human PBMC with lipopolysaccharide; assay: SPFC production by LPS stimulation (Test Example 1); type: cell-based
Procedure: A suppressive effect of the test compound to effector macrophage induction was investigated in vitro by an induction and production system of spontaneous plaque-forming cell (SPEC) mentioned in M. Ishibashi, S. Jiang, Y. Kokado, S. Takahara, T. Sonoda: Immunopharmacologic effects of immunosuppressive agents explored by a new effector generation assay. Transplant Proc., 21: 1854-1858, 1989.
Heparin-added peripheral blood (40 ml) was collected from a healthy person and the same amount of EDTA-added physiological saline was added. PBMC were obtained by a specific gravity centrifugal method using Ficoll-Hypaque (manufactured by Pharmacia Fine Chemicals). Self-plasma was added thereto and allowed to stand at 37° C. for 10 minutes and platelets were removed by a low-speed centrifugal separation. RPMI 1640 liquid containing 15 μg/ml of gentamicin and 2 mM L-glutamine was used for washing the PBMC. Concentration of the PBMC was adjusted to 2×10^6 cells/ml using the same liquid.
Each 200 μl of a solution containing 2×10^6 PBMC/ml prepared in the step 1 were added to each well of a micro test plate, lipopolysaccharide (hereinafter, abbreviated as LPS) was diluted with the RPMI 1640 liquid to make the final concentration 80 μg/ml and the said LPS solution was added to each well of the 200 μl-micro test plate. Further, each 50 μl of human serum of type AB were added so as to make the concentration 10% by weight. Two such micro test plates were prepared.
After that, to the above two micro test plates was added a solution where the test compound was diluted with 1% by weight of DMSO so as to make the concentration of the test compound 1 μM. Similarly were prepared each two micro test plates where the final concentrations of the test compound were 0.1 μM, 0.01 μM and 0.001 μM.
The culture liquid prepared as such was incubated for 6 days at 37° C. in 5% CO2.
The effector macrophage induced after the incubation was all recovered using a rubber-policeman (spatula made of rubber). A Hanks solution containing 5 μg/ml of gentamicin was used for washing and, using the said solution, there was prepared a solution where the concentration of the induced effector macrophage was 2×10^6 per ml.
With regard to autologous erythrocytes, those which were preserved at 4° C. in a phosphate physiological saline (hereinafter, abbreviated as PBS) to which 0.1% by weight of AB serum and autologous erythrocytes obtained from PBMC separation were used were used. The preserved autologous erythrocytes were washed for three times with a Hanks solution to which no serum was added and made into a solution of 4% by weight concentration using the said Hanks solution. Poly-L-lysine was added to a Terasaki plate and washed with PBS every 20 minutes at 37° C., the above-mentioned autologous erythrocyte solution was added thereto immediately, the mixture was allowed to stand at 37° C. for 30 minutes and the erythrocytes which were not adhered to the plate were removed to prepare a Terasaki plate to which self-erythrocytes in a monolayer were adhered.
A Hanks solution (4 μl) was added to the said Terasaki plate, 4 μl of a solution containing the induced effector macrophage obtained in the step 3 were added thereto and the mixture was allowed to stand at 37° C. for 2 hours. After completion of the reaction, it was fixed by formalin. Numbers of the produced SPFC which were adhered or phagocytized were measured.
A mean SPFC production number was calculated from the measured values of SPFC production when the concentration of the test compound was the same. SPFC production number per 1×10^6 of the induced effector macrophage was calculated and, from the recovered induced effector macrophage numbers, total SPFC production amount (S2) was calculated.
As a control, no test compound was added and the same operation as above was carried out to calculate the total SPFC production amount (S1). […]

[3] = system: obstruction-released kidney of male SD rats; assay: Obstruction release model after complete obstruction of unilateral ureter for 14 days (UUO/Release, Test Example 3); type: in vivo, rat; parameters: key to Suppressive Effect to Glomerular Lesion / Suppressive Effect to Lesion of Tubulointerstitial Tissue: ∘: available; Δ: somewhat available; x: not available; details: for Rate of Cases where Glomerular Lesion was Suppressed / Serum Creatinine level (mg/dl) on the 7th Day from Release of Obstruction / Weight of Kidney (g) on the 7th Day from Release of Obstruction / Rate of Cases where tubulointerstitial Lesion was Suppressed: Table 2
Procedure: Obstruction Release Model after Complete Obstruction of Unilateral Ureter for 14 Days
Experimental models were prepared by a method devised and established by Ishibashi (Michio Ishibashi, et al.: The Japanese Journal of Nephrology, 42: 248, 2000) using male SD rats of 8-9 weeks age and about 280 g. Thus, the rat was laparotomized under anesthetization with ether and ureter was ligated with 7-0 Nylon at the height of the margin of lower pole of left kidney to close the abdomen. On the 14th day after obstruction, the obstruction was released and urinary passage was reconstructed using a cuff. Thus, after 14 days, the part of ligated obstructed ureter was resected, a polyethylene tube of 25 gages (manufactured by Nippon Sherwood) was used as a cuff and inserted into and retained at the lumen from the cut end of the lower normal ureter, then the cuff was also retained in the expanded upper ureter and each of them was ligated and fixed by 7-0 Nylon to reconstruct the urinary passage. At the same time, the right kidney at the opposite side was excised. After the release of the obstruction, body weight was measured, blood was collected on the 2nd day, 5th day and 7th day from the release to measure serum creatinine, then the rat was sacrificed under anesthetization and the left obstruction-released kidney was excised. With regard to the excised kidney, there were carried out measurement of weight of the kidney and pathological test for the kidney.
An in vivo biological test was carried out for the γ-lactone derivatives according to the present invention using the above models. With regard to the test compound, bulk powder of the test compound was dissolved in an aseptic physiological saline together with gum arabic and the final concentration of gum arabic was 5%(vol/vol). The concentration of the test compound 30 mg/ml was suspended in 5% gum arabic-saline solution. The preparation was subcutaneously injected at the dose of 30 mg/kg every day throughout the experiment. With regard to the test compound, there were used (9-1), (4-2) and (7-3) as the compounds of group I suppressing the SPFC production by allo-MLC stimulation, i.e., the compounds which selectively suppress the induction of effector macrophage in the presence of allo-MLC while there was used (3-2) as the compound of group II suppressing the SPFC production by LPS stimulation, i.e., the compounds which selectively suppress the induction of effector macrophage in the presence of LPS.
In the Table, “functional classification” of the compound means the above group I, group II and group III. “Compound” means the compound bearing each of the above-mentioned compound numbers. The fact whether glomerular lesion was suppressed was judged by the ameriolation of the lesions such as thickness of wall of Bowman's capsule, hyperplasia of mesangial cells and glomerular sclerosis. The fact whether lesion of tubulointerstitial tissue was suppressed was judged by the ameriolation of the lesions such as thickness of basement membrane of tubules, cellular infiltration and fibrosis of interstitial tissue. In the table, “control” is the result when the same test as above was carried out using 5% gum arabic only which is a solvent.
In order to further confirm whether the preventive and therapeutic effect of the γ-lactone derivatives of the present invention to the target cell damage is selective, (7-3) of the group I and (6-1) of the group II were used as test compounds and they were subcutaneously injected at the dose of 30 mg/kg every day and compared with the control group. With regard to the control group, only 5% gum arabic which is a solvent was used and the same test as above was carried out.

[4] = 144 h, human PBMC with mitomycin-treated human PBMC, incubated 6 days, Table 1, read-out: SPFC Production Inhibiting Concentration by all-MLC Stimulation (μM: IC50)
[5] = Homo sapiens, Table 5, read-out: Inhibiting Concentration for SPEC Production by allo-MLC Stimulation (μM: IC50)
[6] = 144 h, human PBMC with LPS 80 μg/ml, incubated 6 days, Table 1, read-out: SPFC Production Inhibiting Concentration by LPS Stimulation (μM: IC50)
[7] = Homo sapiens, Table 5, read-out: Inhibiting Concentration for SPEC Production by LPS Stimulation (μM: IC50)
[8] = 30 mg/kg subcutaneously every day
[9] = Experimental Model of Rat: UUO/Release
[10] = Experimental Model of Rat: UUO/Release and CPN

CC(OC(=O)[C@@]1(Oc2ccc(F)cc2)CCC(=O)O1)c1ccc2ccccc2c1 (mixture of isomers) [(3-2), (RS)-(+)-α-methyl-2-naphthalene-methyl 2-(4-fluorophenoxy)-5-oxotetrahydrofuran-2-carboxylate]
IC50 [1, 4]: > 1 µM
IC50 [1, 5]: > 1 µM
functional group (selective suppression of SPFC production by allo-MLC or LPS stimulation) [1]: group II
IC50 [2, 6]: 1 µM
IC50 [2, 7]: 1 µM
selectivity of the suppressive effect on renal lesions [3, 8]: selective suppressive effect
suppression of glomerular lesion [3, 8]: suppressed the glomerular lesion only
suppression of lesion of tubulointerstitial tissue [3, 8]: did not suppress
Rate of Cases where Glomerular Lesion was Suppressed [3, 8]: 100% (5/5)
Serum Creatinine level (mg/dl) on the 7th Day from Release of Obstruction [3, 8]: 2.0 ± 0.4 mg/dL
Weight of Kidney (g) on the 7th Day from Release of Obstruction [3, 8]: 4.36 ± 0.95 g
Suppressive Effect to Glomerular Lesion [3, 9]: ∘
Suppressive Effect to Lesion of Tubulointerstitial Tissue [3, 9]: x

CC(OC(=O)[C@]1(Oc2ccc(F)cc2)CCC(=O)O1)c1ccc2ccccc2c1 (mixture of isomers) [(4-2), (RS)-(+)-α-methyl-2-naphthalene-methyl 2-(4-fluorophenoxy)-5-oxotetrahydrofuran-2-carboxylate]
IC50 [1, 4]: 0.01 µM
IC50 [1, 5]: 0.01 µM
functional group (selective suppression of SPFC production by allo-MLC or LPS stimulation) [1]: group I
IC50 [2, 6]: > 1 µM
IC50 [2, 7]: > 1 µM
selectivity of the suppressive effect on renal lesions [3, 8]: selective suppressive effect
Rate of Cases where Glomerular Lesion was Suppressed [3, 8]: 50% (2/4)
Rate of Cases where tubulointerstitial Lesion was Suppressed [3, 8]: 100% (4/4)
Serum Creatinine level (mg/dl) on the 7th Day from Release of Obstruction [3, 8]: 2.7 ± 0.3 mg/dL
Weight of Kidney (g) on the 7th Day from Release of Obstruction [3, 8]: 3.94 ± 0.32 g
Suppressive Effect to Glomerular Lesion [3, 9]: Δ
Suppressive Effect to Lesion of Tubulointerstitial Tissue [3, 9]: ∘

CCOC(=O)C1(Oc2ccc(F)cc2)CCC(=O)O1 (racemic) [Conventional Compound, ethyl 2-(4-fluorophenoxy)-5-oxo-2-tetrahydrofurancarboxylate, reference compound]
IC50 [1, 4]: 0.1 µM
IC50 [1, 5]: 0.1 µM
IC50 [2, 6]: 0.1 µM
IC50 [2, 7]: 0.1 µM
selectivity of the suppressive effect on renal lesions [3, 8]: no selective suppression was observed
Rate of Cases where Glomerular Lesion was Suppressed [3, 8]: 75% (3/4)
Rate of Cases where tubulointerstitial Lesion was Suppressed [3, 8]: 75% (3/4)
Serum Creatinine level (mg/dl) on the 7th Day from Release of Obstruction [3, 8]: 2.2 ± 0.2 mg/dL
Weight of Kidney (g) on the 7th Day from Release of Obstruction [3, 8]: 2.73 ± 0.41 g
Suppressive Effect to Glomerular Lesion [3, 10]: ∘
Suppressive Effect to Lesion of Tubulointerstitial Tissue [3, 10]: ∘

O=C1CCC(Cc2ccc(F)cc2)(C(=O)O)O1 (stereo not drawn) [(5-2), 2-(4-fluorobenzyl)-5-oxo-tetrahydrofuran-2-carboxylic Acid]
IC50 [1, 4]: 0.1 µM
functional group (selective suppression of SPFC production by allo-MLC or LPS stimulation) [1]: group II
IC50 [2, 6]: 0.01 µM

O=C1CCC(Cc2ccccc2)(C(=O)OCc2ccccc2)O1 (stereo not drawn) [(5-4), Benzyl 2-benzyl-5-oxo-tetrahydrofuran-2-carboxylate]
IC50 [1, 4]: 0.01 µM
functional group (selective suppression of SPFC production by allo-MLC or LPS stimulation) [1]: group I
IC50 [2, 6]: 1 µM

N#CC1(C(=O)OCc2ccccc2)CCC(=O)O1 (stereo not drawn) [(6-3), Benzyl 2-cyano-5-oxotetrahydrofuran-2-carboxylate]
IC50 [1, 4]: 0.1 µM
functional group (selective suppression of SPFC production by allo-MLC or LPS stimulation) [1]: group II
IC50 [2, 6]: 0.001 µM

O=C1OC(O)(C(=O)OCc2ccccc2)c2ccccc21 (stereo not drawn) [(7-1), Benzyl 1-hydroxy-3-oxo-1,3-dihydroisobenzofuran-1-carboxylate]
IC50 [1, 4]: 0.1 µM
functional group (selective suppression of SPFC production by allo-MLC or LPS stimulation) [1]: group I
IC50 [2, 6]: 1 µM

O=C1OC(F)(C(=O)OCc2ccccc2)c2ccccc21 (stereo not drawn) [(7-2), Benzyl 1-fluoro-3-oxo-1,3-dihydro-isobenzofuran-1-carboxylate]
IC50 [1, 4]: > 1 µM
functional group (selective suppression of SPFC production by allo-MLC or LPS stimulation) [1]: group II
IC50 [2, 6]: 0.1 µM

O=C1OC(Oc2ccc(F)cc2)(C(=O)OCc2ccccc2)c2ccccc21 (stereo not drawn) [(7-5), Benzyl 1-(4-fluorophenoxy)-3-oxo-1,3-dihydroisobenzofuran-1-carboxylate]
IC50 [1, 4]: 0.01 µM
functional group (selective suppression of SPFC production by allo-MLC or LPS stimulation) [1]: group I
IC50 [2, 6]: > 1 µM

O=C1OC(Oc2ccc(F)cc2)(C(=O)O)c2ccccc21 (stereo not drawn) [(7-6), 1-(4-fluorophenoxy)-3-oxo-1,3-dihydro-isobenzofuran-1-carboxylic Acid]
IC50 [1, 4]: > 1 µM
functional group (selective suppression of SPFC production by allo-MLC or LPS stimulation) [1]: group II
IC50 [2, 6]: 0.01 µM

O=C(O)C(=O)c1ccccc1C(=O)O [(7-7)]
IC50 [1, 4]: > 1 µM
functional group (selective suppression of SPFC production by allo-MLC or LPS stimulation) [1]: group II
IC50 [2, 6]: 0.01 µM

O=C1CC[C@@](Oc2ccc(F)cc2)(C(=O)O)O1 [Compound (1), (−)-2-(4-fluorophenoxy)-5-oxotetrahydrofuran-2-carboxylic Acid]
IC50 [1, 4]: 0.01 µM
functional group (selective suppression of SPFC production by allo-MLC or LPS stimulation) [1]: group I
IC50 [2, 6]: > 1 µM
